# Experimental data from patent US7807676B2, “Diketo-Piperazine and Piperidine derivatives as antiviral agents” (priority 2006, dated 2010).
# Where a name gives a salt, the structure may show the parent alone.
# System: HIV-1 single-round infectious reporter virus
# Assay: Single-round infectious HIV-1 luciferase reporter virus infection of HeLa CD4 cells (antiviral EC50)
# Assay type: cell-based
# Conditions: Human immunodeficiency virus 1, HeLa, read-out: EC50 Group from Table 3
# Experimental: • Virus production—Human embryonic Kidney cell line, 293T, was propagated in Dulbecco's Modified Eagle Medium (Invitrogen, Carlsbad, Calif.) containing 10% fetal Bovine serum (FBS, Sigma, St. Louis, Mo.). • Virus infection—Human epithelial cell line, HeLa, expressing the HIV-1 receptor CD4 was propagated in Dulbecco's Modified Eagle Medium (Invitrogen, Carlsbad, Calif.) containing 10% fetal Bovine serum (FBS, Sigma, St. Louis, Mo.) and supplemented with 0.2 mg/mL Geneticin (Invitrogen, Carlsbad, Calif.). Virus-Single-round infectious reporter virus was produced by co-transfecting human embryonic Kidney 293 cells with an HIV-1 envelope DNA expression vector and a proviral cDNA containing an envelope deletion mutation and the luciferase reporter gene inserted in place of HIV-1 nef sequences (Chen et al, Ref. 41). Transfections were performed using lipofectAMINE PLUS reagent as described by the manufacturer (Invitrogen, Carlsbad, Calif.). Experiment • 1. HeLa CD4 cells were plated in 96 well plates at a cell density of 1×10^4 cells per well in 100 μl Dulbecco's Modified Eagle Medium containing 10% fetal Bovine serum and incubated overnight. • 2. Compound was added in a 2 μl dimethylsulfoxide solution, so that the final assay concentration would be ≦10 μM. • 3. 100 μl of single-round infectious reporter virus in Dulbecco's Modified Eagle Medium was then added to the plated cells and compound at an approximate multiplicity of infection (MOI) of 0.01, resulting in a final volume of 200 μl per well. • 4. Virally-infected cells were incubated at 37 degrees Celsius, in a CO2 incubator, and harvested 72 h after infection. • 5. Viral infection was monitored by measuring luciferase expression from viral DNA in the infected cells using a luciferase reporter gene assay kit, as described by the manufacturer (Roche Molecular Biochemicals, Indianapolis, Ind.). Infected cell supernatants were removed and 50 μl of lysis buffer was added per well. After 15 minutes, 50 μl of freshly-reconstituted luciferase assay reagent was added per well. Luciferase activity was then quantified by measuring luminescence using a Wallac microbeta scintillation counter. • 6. The percent inhibition for each compound was calculated by quantifying the level of luciferase expression in cells infected in the presence of each compound as a percentage of that observed for cells infected in the absence of compound and subtracting such a determined value from 100. • 7. An EC50 provides a method for comparing the antiviral potency of the compounds of this disclosure. The effective concentration for fifty percent inhibition (EC50) was calculated with the Microsoft Excel Xlfit curve fitting software. For each compound, curves were generated from percent inhibition calculated at 10 different concentrations by using a four parameter logistic model (model 205). Table 3 is the key for the data in Table 4. Results
row,SMILES,EC50 [nM]
1,COc1cnc(-n2cnc(C)n2)c2[nH]cc(C(=O)C(=O)N3CCN(C4=NCCCN4c4ccccc4)CC3)c12 [A-39],> 500
2,O=C(C(=O)N1CCN(c2ccccc2C2CCCCC2)CC1)c1c[nH]c2c(-n3ccnn3)ncc(F)c12 [A-42],> 500
3,CCOC(=O)CCCCCC(=O)c1cccnc1N1CCN(C(=O)C(=O)c2c[nH]c3c(-n4ccnn4)ncc(F)c23)CC1 [D-43],> 500
4,COc1ncc(-c2ncc(OC)c3c(C(=O)C(=O)N4CCN(c5nnnn5-c5ccccn5)CC4)c[nH]c23)s1 [B-88],< 500
5,COc1cnc(-n2cnc(C)n2)c2[nH]cc(C(=O)C(=O)N3CCN(c4ncccc4N4CC(C)(C)C4=O)C[C@H]3C)c12 [D-12],> 500
6,COc1cnc(-n2cnc(C)n2)c2[nH]cc(C(=O)C(=O)N3CCN(c4nc(N(C)C)n(-c5ccccc5)n4)CC3)c12 [G-4d],< 500
7,O=C(C(=O)N1CCN(c2ncccc2-c2nc3ccccc3s2)CC1)c1c[nH]c2c(-n3ccnn3)ncc(F)c12 [D-31],> 500
8,COc1cnc(-n2cnc(C)n2)c2[nH]cc(C(=O)C(=O)N3CCN(c4nn(C)c(=O)cc4-c4ccccc4)C[C@H]3C)c12 [D-50],> 500
9,COc1ccc(-c2ncc(OC)c3c(C(=O)C(=O)N4CCN(c5nnnn5-c5ccccn5)CC4)c[nH]c23)cn1 [H-10],< 500
10,O=C(C(=O)N1CCN(c2nnnn2-c2cccnc2)CC1)c1c[nH]c2c(-n3ccnn3)ncc(F)c12 [E-3],< 500
11,O=C(C(=O)N1CCN(c2nnnn2-c2ccccc2)CC1)c1c[nH]c2c(-c3cc(C(=O)N4CCC(O)CC4)[nH]n3)ncc(F)c12 [F-16],< 500
12,Cc1nc(N2CCN(C(=O)C(=O)c3c[nH]c4c(-n5ccnn5)ncc(F)c34)[C@H](C)C2)c2c(-c3ccccc3)csc2n1 [D-26],> 500
13,COc1cnc(-n2cnc(C)n2)c2[nH]cc(C(=O)C(=O)N3[C@H](C)CN(c4nnnn4-c4ccccc4)C[C@@H]3C)c12 [A-73],< 500
14,COc1cnc(-n2cnc(C)n2)c2[nH]cc(C(=O)C(=O)N3CCN(c4cn(Cc5ccccn5)nc4-c4ccccc4)CC3)c12 [G-7a],< 500
15,O=C(C(=O)N1CCN(c2cccc(-c3ccccc3)c2)CC1)c1c[nH]c2c(-n3ccnn3)ncc(F)c12 [A-3],< 500
16,COc1cnc(-n2cnc(C)n2)c2[nH]cc(C(=O)C(=O)N3CCN(c4nn[nH]c4-c4ccccn4)CC3)c12 [G-24b],< 500
17,O=C(NCCN1CCOCC1)c1cc(-c2ncc(F)c3c(C(=O)C(=O)N4CCN(c5c[nH]nc5-c5ccccc5)CC4)c[nH]c23)n[nH]1 [B-54],< 500
18,O=C(C(=O)N1CCN(c2cnnn2-c2ccccc2)CC1)c1c[nH]c2c(-n3ccnn3)ncc(F)c12 [G-30a],< 500
19,Cc1cc(N2CCN(C(=O)C(=O)c3c[nH]c4c(-n5ccnn5)ncc(F)c34)CC2)nc(-c2ccccc2O)n1 [A-35],< 500
20,Cc1cc(N2CCN(C(=O)C(=O)c3c[nH]c4c(-n5ccnn5)ncc(F)c34)CC2)n(-c2ccccc2)n1 [A-48],< 500
21,COc1cnc(-n2cnc(C)n2)c2[nH]cc(C(=O)C(=O)N3CCN(c4ncccc4I)CC3)c12 [D-2],< 500
22,COc1cnc(-c2ccn(CC(=O)N(C)C)n2)c2[nH]cc(C(=O)C(=O)N3CCN(c4nnnn4-c4ccccn4)CC3)c12 [B-76],> 500
23,CCc1ncn(-c2ncc(OC)c3c(C(=O)C(=O)N4CCN(c5nnnn5-c5ccccn5)CC4)c[nH]c23)n1 [A-69],< 500
24,"COc1cnc(-c2cc(C(=O)NCCO)[nH]n2)c2[nH]cc(C(=O)C(=O)N3CCN(c4nnnn4-c4ccccc4)CC3)c12 [B-8, N-(2-hydroxyethyl)-3-(4-methoxy-3-(2-oxo-2-(4-(1-phenyl-1H-tetrazol-5-yl)piperazin-1-yl)acetyl)-1H-pyrrolo[2,3-c]pyridin-7-yl)-1H-pyrazole-5-carboxamide.TFA]",< 500
25,"CN(C)C(=O)Nc1ncc(F)c2c(C(=O)C(=O)N3CCN(c4nnnn4-c4ccccc4)CC3)c[nH]c12 [B-19, 3-(4-fluoro-3-(2-oxo-2-(4-(1-phenyl-1H-tetrazol-5-yl)piperazin-1-yl)acetyl)-1H-pyrrolo[2,3-c]pyridin-7-yl)-1,1-dimethylurea]",< 500

row,SMILES,EC50 [nM]
1,N#Cc1cccc(CC(=O)c2cccnc2N2CCN(C(=O)C(=O)c3c[nH]c4c(-n5ccnn5)ncc(F)c34)CC2)c1 [D-48],< 500
2,"C[C@@H]1CN(c2nnnn2-c2ccccc2)C[C@H](C)N1C(=O)C(=O)c1c[nH]c2c(-n3ccnn3)ncc(F)c12 [C-1, 1-((2R,6S)-2,6-dimethyl-4-(1-phenyl-1H-tetrazol-5-yl)piperazin-1-yl)-2-(4-fluoro-7-(1H-1,2,3-triazol-1-yl)-1H-pyrrolo[2,3-c]pyridin-3-yl)ethane-1,2-dione]",< 500
3,"COc1cnc(-c2cc(C(=O)NCCCN(C)C)[nH]n2)c2[nH]cc(C(=O)C(=O)N3CCN(c4nnnn4-c4ccccc4)CC3)c12 [B-15, N-(3-(dimethylamino)propyl)-3-(4-methoxy-3-(2-oxo-2-(4-(1-phenyl-1H-tetrazol-5-yl)piperazin-1-yl)acetyl)-1H-pyrrolo[2,3-c]pyridin-7-yl)-1H-pyrazole-5-carboxamide.TFA]",< 500
4,"Cc1ccnn1-c1ncc(F)c2c(C(=O)C(=O)N3CCN(c4nnnn4-c4ccccc4)CC3)c[nH]c12 [B-3, 1-(4-fluoro-7-(5-methyl-1H-pyrazol-1-yl)-1H-pyrrolo[2,3-c]pyridin-3-yl)-2-(4-(1-phenyl-1H-tetrazol-5-yl)piperazin-1-yl)ethane-1,2-dione]",< 500
5,O=C(C(=O)N1CCC(N2CCC2c2ccccc2)CC1)c1c[nH]c2c(-n3ccnn3)ncc(F)c12 (stereo not shown) [A-24],> 500
6,COc1cnc(-c2ccc(N)nc2)c2[nH]cc(C(=O)C(=O)N3CCN(c4nnnn4-c4ccccn4)CC3)c12 [H-9],< 500
7,O=C(C(=O)N1CCN(c2cccc(C3CCCCC3)c2)CC1)c1c[nH]c2c(-n3ccnn3)ncc(F)c12 [A-41],> 500
8,O=C(C(=O)N1CCN(c2nccc(-c3ccccc3)n2)CC1)c1c[nH]c2c(-n3ccnn3)ncc(F)c12 [A-7],< 500
9,O=C(C(=O)N1CCN(c2ncccc2C(F)(F)F)CC1)c1c[nH]c2c(-n3ccnn3)ncc(F)c12 [A-51],< 500
10,COc1cnc(-n2cnc(C)n2)c2[nH]cc(C(=O)C(=O)N3CCN(c4nnnn4-c4nccs4)CC3)c12 [E-5],< 500
11,COc1cnc(-c2cncs2)c2[nH]cc(C(=O)C(=O)N3CCN(c4nnnn4-c4ccccn4)CC3)c12 [B-71],< 500
12,"COc1cnc(-n2cnc(C)n2)c2[nH]cc(C(=O)C(=O)N3CCN(c4cn[nH]c4-c4ccccn4)CC3)c12 [E-17, 1-(4-methoxy-7-(3-methyl-1H-1,2,4-triazol-1-yl)-1H-pyrrolo[2,3-c]pyridinyl-3-yl)-2-(4-(3-(pyridin-2-yl)-1H-pyrazol-4-yl)piperazin-1-yl)ethane-1,2-dione]",< 500
13,C[C@@H]1CN(c2nnnn2-c2ccccc2)CCN1C(=O)C(=O)c1c[nH]c2c(-n3ccnn3)ncc(F)c12 [A-14],< 500
14,COc1cnc(-c2ccc(N3CCN(C(=O)NC(C)(C)C)CC3)cc2)c2[nH]cc(C(=O)C(=O)N3CCN(c4nnnn4-c4ccccn4)CC3)c12 [B-86],< 500
15,O=C(C(=O)N1CCN(c2ccc(-c3ccccc3)cc2)CC1)c1c[nH]c2c(-n3ccnn3)ncc(F)c12 [A-2],> 500
16,O=C(C(=O)N1CCN(c2nncn2-c2ccccc2)CC1)c1c[nH]c2c(-n3ccnn3)ncc(O)c12 [A-43],< 500
17,O=C(C(=O)N1CCN(c2nncn2-c2ccccc2)CC1)c1c[nH]c2c(-n3ccnn3)ncc(F)c12 [A-20],< 500
18,COc1cnc(-c2cnc(N3CCOCC3)cn2)c2[nH]cc(C(=O)C(=O)N3CCN(c4nnnn4-c4ccccc4)CC3)c12 [G-2b],< 500
19,CN(C)CCCNC(=O)c1cc(-c2ncc(F)c3c(C(=O)C(=O)N4CCN(c5nnnn5-c5ccccc5)CC4)c[nH]c23)nn1C [B-45],< 500
20,COc1cnc(-n2cc(C)nn2)c2[nH]cc(C(=O)C(=O)N3CCN(c4nnnn4-c4ccccn4)CC3)c12 [G-31],< 500
21,COc1cnc(-c2cccnc2F)c2[nH]cc(C(=O)C(=O)N3CCN(c4nnnn4-c4ccccn4)CC3)c12 [H-2],< 500
22,CN(C)c1nc(N2CCN(C(=O)C(=O)c3c[nH]c4c(-n5ccnn5)ncc(F)c34)CC2)nn1-c1ccccc1 [G-4c],> 500
23,COc1cnc(-n2cnc(C)n2)c2[nH]cc(C(=O)C(=O)N3CCN(c4ncccc4C)CC3)c12 [D-3],< 500
24,COc1cnc(-n2cnc(C)n2)c2[nH]cc(C(=O)C(=O)N3CCN(c4ncccc4-c4nc5ccccc5s4)CC3)c12 [D-15],< 500
